Reference: patent publication US11802107B2, “Compounds and methods of use” (Signum Biosciences, Inc., priority 2017, dated 2023)
Converted amounts (≈) assume the structure as drawn.

Assays:
[1] = test system: P. acnes (ATCC 6919); test: Minimal inhibitory concentration (MIC) against P. acnes; type: cell-based, Propionibacterium acnes; details: Cutibacterium acnes, ATCC6919, 72 h, P. acnes ATCC 6919, 10^6 CFU/mL, read-out: MIC
Description: To determine minimal inhibitory concentration (MIC), reagents were dissolved in vehicle (5% v/v) and then added to bacteria suspension. P. acnes (ATCC® 6919TM) at 10^6 CFU/mL was incubated with test materials at the concentrations of two-fold serial dilution (0.25-500 μg/mL) and incubated for 72 hours (P. acnes).

[2] = test system: IL-1b; test: P. acnes-induced IL-1b protein on human PBMCs (ELISA); type: cell-based; details: PBMC, PBMCs + live P. acnes 1:1, test material 30 PM, 24 hours
Description: (§1) Cryopreserved human Peripheral Blood Mononuclear cells (PBMCs) from healthy adult donors were obtained from Zen Bio, Inc (Cat No. SER-PBMC-F). Cells were cultured in 12-well plates with lymphocyte media (Cat No. LYMPH-1) and incubated with test materials ([…]) and live P. acnes (ATCC® 6919TM) at 1:1 PBMC: P. acnes bacteria ratio for 24 hours at 37° C. and 5% CO2. After incubation, cell media supernatants were harvested and used to measure pro-inflammatory cytokine levels (IL-8, TNF-α, IL-1b, IL-17) using ELISA kits (BD Biosciences® #557966, #555212, #555244; R&D Systems® #DY317). Total RNA was extracted from cells using the RNAqueous® kit (Ambion®; Cat No. 1912) and cDNA was obtained using the High Capacity RNA-to-cDNA kit (Applied Biosystems®; Cat No. 4387406). Quantitative PCR (qPCR) was performed using the TaqMan® Fast Advanced Master Mix (Applied Biosystems®; Cat No. 4444556) and specific TaqMan®-probes human gene primers CXCL8 (IL-8), IL1B (IL-1b), TNF (TNF-α), IL17A (IL-17A) and GAPDH to calculate the relative gene fold expression change per treatment. Gene expression analysis was performed using the comparative Ct method (also known as the 2-[delta][delta]Ct) approach by comparing the Ct values of P. acnes-only treated cells with the untreated samples and normalized to GAPDH gene expression as endogenous housekeeping gene.

[3] = test system: IL-17; test: P. acnes-induced IL-17 protein on human PBMCs (ELISA); type: cell-based; details: PBMC, PBMCs + live P. acnes 1:1, test material 30 PM, 24 hours
Description: as §1

[4] = test system: IL-5; test: T-cell receptor (anti-CD3/CD28)-induced IL-5 on PBMCs; type: cell-based; details: Homo sapiens, PBMC, anti-CD3/CD28 beads, 24 hours, ELISA, read-out: TCR-PBMCs IL-5 Protein IC50
Description: Cryopreserved human Peripheral Blood Mononuclear cells (PBMCs) from healthy adult donors were obtained from Zen Bio, Inc (Cat No. SER-PBMC-F). Cells were cultured in 96-well plates with lymphocyte media (Cat No. LYMPH-1) and were pre-treated with test materials (≤100 μM) for 2 hours and later co-treated with test materials and anti-CD3/CD28 beads (Thermo-Fisher; Cat No. 11131D) at 1:0.4 PBMC:bead ratio for 24 hours at 37° C. and 5% CO2. After incubation, cell media supernatants were harvested and used to measure cytokine levels (IL-4, IL-5, IL-10) using ELISA kits (BD Biosciences® #555194, #555157; R&D Systems® #DY317). Results were represented as percent of inhibition relative to untreated and anti-CD3/CD28 beads-only treated cells. IC50 values were determined by non-linear regression analysis using the four-parameter logistic equation.

[5] = test system: P. acnes (ATCC 6919); test: Minimal bactericidal concentration (MBC) against P. acnes; type: cell-based, Propionibacterium acnes; details: Cutibacterium acnes, ATCC6919; P. acnes 10^7 CFU/mL, in PBS, anaerobic conditions
[6] = test system: P. acnes (ATCC 6919) biofilms; test: P. acnes biofilm eradication (MBEC), crystal violet; type: cell-based, Propionibacterium acnes; details: 24 hours, ≥80% eradication vs vehicle
Description: P. acnes (ATCC® 6919™) was cultured as described above. Bacteria biofilms were established by seeding P. acnes cultures in 96-well plates and incubating for 24 hours without agitation. Later, biofilms were incubated with test materials for 24 hours. Remaining biofilms were washed and stained with crystal violet. […] The absorbance was measured at 595 nm in a microplate reader. […] Results from disk diffusion susceptibility testing (Kirby-Bauer Method) after 72 hours incubation were also obtained.

[7] = test system: DEFB103 (hBD3); test: NHEK antimicrobial peptide gene expression, hBD3; type: cell-based, human; details: 10 μM, 24 hours, qPCR, normalized to GAPDH
Description: (§2) Normal human epidermal keratinocytes (NHEKs) from neonatal donors were obtained from Thermo-Fisher (Cat No. C-001-5C). Cells were cultured in 6-well plates for 24 hours before treatments with EpiLife media (Cat No. MEPI500CA) supplemented with keratinocytes growth supplement (Cat No. 50015). On Day 2, media was removed and incubated with test materials (10 μM) for 24 hours at 37° C. and 5% CO2. On Day 3, total RNA was extracted from cells using the RNAqueous® kit (Ambion®; Cat No. 1912) and cDNA was obtained using the High Capacity RNA-to-cDNA kit (Applied Biosystems®; Cat No. 4387406). Quantitative PCR (qPCR) was performed using the TaqMan® Fast Advanced Master Mix (Applied Biosystems®; Cat No. 4444556) and specific TaqMan®-probes human gene primers DEFB4B (hBD2), DEFB103 (hBD3), HCAP18 and GAPDH to calculate the relative gene fold expression change per treatment. Gene expression analysis was performed using the comparative Ct method (also known as the 2-[delta][delta]Ct) approach by comparing the Ct values of the treated samples with the untreated samples and normalized to GAPDH gene expression as endogenous housekeeping gene. Results were represented as fold-expression/untreated cells.

[8] = test system: HCAP18; test: NHEK antimicrobial peptide gene expression, hCAP18; type: cell-based, human; details: 10 μM, 24 hours, qPCR, normalized to GAPDH
Description: as §2

[9] = test system: IL-8; test: Peptidoglycan (PGN)-induced IL-8 on NHEKs; type: cell-based, human; details: for IC50: Homo sapiens, NHEK, PGN 10 μg/mL, 24 hours, ELISA, read-out: PGN-NHEK 1L-8 Protein IC50; for PGN-induced IL-8 production: cultured human keratinocytes exposed to peptidoglycan (PGN)
Description: Normal human epidermal keratinocytes (NHEKs) from neonatal donors were obtained from Thermo-Fisher (Cat No. C-001-5C). Cells were cultured in 96-well plates for 24 hours with EpiLife media (Cat No. MEPI500CA) supplemented with keratinocytes growth supplement (Cat No. S0015). On Day 2, media was removed and replaced with supplement-depleted medium for 24 hours. On Day 3, media was removed and cells were pre-treated with test materials (≤1 μM) for 2 hours and later co-treated with test materials and PGN (Sigma Aldrich, Cat No. 77140) at 10 μg/mL and incubated for 24 hours at 37° C. and 5% CO2. PGN is a TLR-2 agonist. After incubation, cell media supernatants were harvested and used to measure pro-inflammatory cytokine levels (IL-8) using ELISA kit (BD Biosciences® #555244). Results were represented as percent of inhibition relative to untreated and PGN-only treated cells. IC50 values were determined by non-linear regression analysis using the four-parameter logistic equation.

Row | MIC [1] [µg/mL] | IC50 [4] [µM] | IC50 [9] [µM] | SMILES | inhibition at 30 pM [2] [%] | inhibition at 30 pM [3] [%] | MBC [5] [µg/mL] | MBEC [6] | hBD3 gene expression [7] | hCAP18 gene expression [8] | PGN-induced IL-8 production [9]
1 | 10 (≈ 20 µM) | 55 |  | C/C(=C\CSCC(NC(=O)NCC(=O)O)C(=O)O)CCCC(C)CCCC(C)CCCC(C)C (centres unmarked) [A] | 38 | 32 |  |  |  |  | 
2 | 4 (≈ 7.16 µM) |  | 0.05 | C/C(=C\CSCC(NC(=O)N(CC(=O)O)CC(=O)O)C(=O)O)CCCC(C)CCCC(C)CCCC(C)C (centres unmarked) [Compound G] | 91 | 29 | 1 (≈ 1.79 µM) | 7 μg/mL and (11) μM | 4.7 Fold-expression/untreated cells | 0.6 Fold-expression/untreated cells | inhibit IL-8 production
3 | 22 (≈ 42.7 µM) | 9 |  | C/C(=C\CSC[C@H](NC(=O)COCC(=O)O)C(=O)O)CCCC(C)CCCC(C)CCCC(C)C (some centres unmarked) [Compound T] |  |  |  |  |  |  | 

More lines, now with the values behind:

Row | SMILES | MIC [1] [µg/mL] | IC50 [4] [µM] | IC50 [9] [µM] | inhibition at 30 pM [2] [%] | inhibition at 30 pM [3] [%] | MBC [5] [µg/mL] | MBEC [6] | hBD3 gene expression [7] | hCAP18 gene expression [8] | PGN-induced IL-8 production [9]
4 | C/C(=C\CSC[C@H](NC(=O)N(C)CC(=O)O)C(=O)O)CCCC(C)CCCC(C)CCCC(C)C (stereo partly drawn) [Compound C, (2R)-2-{[(carboxymethyl)(methyl)carbamoyl]amino}-3-{[(2E)-3,7,11,15-tetramethylhexadec-2-en-1-yl]sulfanyl}propanoic acid] | 6 (≈ 11.7 µM) | 46 | 0.25 | 36 | 0 | 22 (≈ 42.7 µM) | 9 µg/mL | 9.5 Fold-expression/untreated cells | 0.5 Fold-expression/untreated cells | 
5 | N#Cc1ccc(Oc2ccc3c(c2)COB3O)cc1 [AN2728, reference compound] |  | 1 |  |  |  |  |  |  |  | 
6 | C/C(=C\CSC[C@H](NC(=O)N1CCC[C@H]1C(=O)O)C(=O)O)CCCC(C)CCCC(C)CCCC(C)C (some centres unmarked) [Compound E] | 5 (≈ 9.25 µM) | 63 | 0.25 | 82 | 23 | 7 (≈ 12.9 µM) | 12 μg/mL and (21) μM | 2.9 Fold-expression/untreated cells | 0.7 Fold-expression/untreated cells | inhibit IL-8 production
